Experimental data from ChEMBL document CHEMBL1201862, “PubChem BioAssay data set” (2004).
“And” between values parts separate entries of the source, which are not always exact repeats. Equal values may be shown once.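 In this assay, cells in 96-well plates receive the compound at five concentrations for 48 hours. Endpoints are linearly interpolated between the surrounding concentrations. GI50 is the concentration that inhibits growth by half.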 The source made the active and inactive calls. No stated cut-off is given here; in the data, active = GI50 up to about 1.1 µM and inactive = higher.

What was measured:
Experiment in all cases: growth of human tumour cells (NCI), 48 h
[1] = test system: HCT-15
[2] = test system: CCRF-CEM
[3] = test system: NCI-H460
[4] = test system: ACHN
[5] = test system: OVCAR-4
[6] = test system: OVCAR-5
[7] = test system: MOLT-4
[8] = test system: LXFL 529
[9] = test system: SN12C
[10] = test system: HOP-18
[11] = test system: SF-295
[12] = test system: A498
[13] = test system: SK-OV-3
[14] = test system: K562
[15] = test system: UO-31
[16] = test system: RXF 631
[17] = test system: SNB-75
[18] = test system: SW-620
[19] = test system: M19-MEL
[20] = test system: UACC-62
[21] = test system: DMS-114
[22] = test system: LOX IMVI
[23] = test system: HOP-92
[24] = test system: NCI-H522
[25] = test system: DMS-273
[26] = test system: A549
[27] = test system: SF-539
[28] = test system: U-251
[29] = test system: NCI-H23
[30] = test system: SK-MEL-28
[31] = test system: EKVX
[32] = test system: HCC 2998
[33] = test system: SF-268
[34] = test system: IGROV-1
[35] = test system: COLO 205
[36] = test system: M14
[37] = test system: SNB-78
[38] = test system: TK-10
[39] = test system: SR
[40] = test system: RPMI-8226
[41] = test system: XF498
[42] = test system: KM12
[43] = test system: OVCAR-3
[44] = test system: Malme-3M
[45] = test system: CAKI-1
[46] = test system: OVCAR-8
[47] = test system: NCI-H226
[48] = test system: SK-MEL-2
[49] = test system: HOP-62
[50] = test system: KM-20L2
[51] = test system: HCT-116
[52] = test system: RXF 393
[53] = test system: HL-60
[54] = test system: DLD-1
[55] = test system: HT-29
[56] = test system: UACC-257
[57] = test system: SK-MEL-5
[58] = test system: 786-0
[59] = test system: SNB-19

In the case of `Cn1cnc([N+](=O)[O-])c1Sc1nc2ccccc2o1`, the GI50 [1] is reported as 2.77 µM, the GI50 [2] is reported as 3.03 µM (inactive) and the GI50 [3] is reported as 32.3 µM (inactive). The GI50 [4] was 11.5 µM (inactive), the GI50 [5] was 4.35 µM (inactive) and the GI50 [6] was 14.2 µM (inactive). The GI50 [7] was 2.52 µM (inactive), the GI50 [8] was 3.08 µM (inactive) and the GI50 [9] was 6.78 µM (inactive). The GI50 [10] was 0.389 µM (active), the GI50 [11] was 26.3 µM (inactive) and the GI50 [12] was 19.3 µM (inactive). The GI50 [13] was 22.8 µM (inactive), the GI50 [14] was 2.53 µM (inactive) and the GI50 [15] was 12.2 µM (inactive). The GI50 [16] was 4.05 µM (inactive), the GI50 [17] was 16.6 µM (inactive) and the GI50 [18] was 3.72 µM (inactive). The GI50 [19] was 8.43 µM (inactive), the GI50 [20] was 12.4 µM (inactive) and the GI50 [21] was 2.14 µM (inactive). The GI50 [22] was 10.7 µM (inactive), the GI50 [23] was 4.24 µM (inactive) and the GI50 [24] was 1.8 µM (inactive). The GI50 [25] was 3.01 µM (inactive), the GI50 [26] was 23.1 µM (inactive) and the GI50 [27] was 9.64 µM (inactive). For the same compound, the GI50 [28] was 12.6 µM (inactive), the GI50 [29] was 5.22 µM (inactive) and the GI50 [30] was 5.78 µM (inactive). The GI50 [31] was 10.2 µM (inactive), the GI50 [32] was 11 µM (inactive) and the GI50 [33] was 8.32 µM (inactive). The GI50 [34] was 13.2 µM (inactive), the GI50 [35] was 1.7 µM (inactive) and the GI50 [36] was 6.35 µM (inactive). For the same compound, the GI50 [37] was 13.1 µM (inactive), the GI50 [38] was 10.5 µM (inactive) and the GI50 [39] was 2.49 µM (inactive). For the same compound, the GI50 [40] was 3.45 µM (inactive), the GI50 [41] was 6.44 µM (inactive) and the GI50 [42] was 5.18 µM (inactive). For the same compound, the GI50 [43] was 5.81 µM (inactive), the GI50 [44] was 5.41 µM (inactive) and the GI50 [45] was 1.9 µM (inactive). The GI50 [46] was 2.82 µM (inactive), the GI50 [47] was 15.1 µM (inactive) and the GI50 [48] was 28.1 µM (inactive). For the same compound, the GI50 [49] was 36.8 µM (inactive), the GI50 [50] was 4.66 µM (inactive) and the GI50 [51] was 3.58 µM (inactive). The GI50 [52] was 8.91 µM (inactive), the GI50 [53] was 1.51 µM (inactive) and the GI50 [54] was 4.13 µM (inactive). The GI50 [55] was 3.44 µM (inactive), the GI50 [56] was 5.86 µM (inactive) and the GI50 [57] was 13.3 µM (inactive). For the same compound, the GI50 [58] was 14 µM (inactive) and the GI50 [59] was 17.7 µM (inactive).
With `OC(c1ccccc1)(c1ccccc1)c1ccccn1` the GI50 [1] was over 100 µM, the GI50 [2] was > 100 µM (inactive) and the GI50 [3] was > 100 µM (inactive). For the same compound, the GI50 [4] was > 100 µM (inactive), the GI50 [5] was > 100 µM (inactive) and the GI50 [6] was > 100 µM (inactive). For the same compound, the GI50 [7] was > 100 µM (inactive), the GI50 [8] was > 100 µM (inactive) and the GI50 [9] was > 100 µM (inactive). For the same compound, the GI50 [10] was > 100 µM (inactive), the GI50 [11] was > 100 µM (inactive) and 80.5 µM (inactive) and the GI50 [12] was > 100 µM (inactive). The GI50 [13] was > 100 µM (inactive), the GI50 [14] was > 100 µM (inactive) and the GI50 [15] was > 100 µM (inactive). The GI50 [16] was > 100 µM (inactive), the GI50 [17] was > 100 µM (inactive) and 63.7 µM (inactive) and the GI50 [18] was > 100 µM (inactive). The GI50 [19] was > 100 µM (inactive), the GI50 [20] was > 100 µM (inactive) and the GI50 [21] was 72.9 µM (inactive). For the same compound, the GI50 [22] was > 100 µM (inactive), the GI50 [23] was > 100 µM (inactive) and the GI50 [24] was > 100 µM (inactive). The GI50 [25] was > 100 µM (inactive), the GI50 [26] was > 100 µM (inactive) and the GI50 [27] was > 100 µM (inactive). For the same compound, the GI50 [28] was > 100 µM (inactive), the GI50 [29] was 83 µM (inactive) and the GI50 [30] was > 100 µM (inactive). For the same compound, the GI50 [31] was > 100 µM (inactive), the GI50 [32] was > 100 µM (inactive) and the GI50 [33] was > 100 µM (inactive). The GI50 [34] was > 100 µM (inactive), the GI50 [35] was > 100 µM (inactive) and the GI50 [36] was > 100 µM (inactive). For the same compound, the GI50 [37] was > 100 µM (inactive), the GI50 [38] was > 100 µM (inactive) and the GI50 [39] was > 100 µM (inactive). The GI50 [40] was 95.5 µM (inactive), the GI50 [41] was > 100 µM (inactive) and the GI50 [42] was > 100 µM (inactive). For the same compound, the GI50 [43] was > 100 µM (inactive), the GI50 [44] was > 100 µM (inactive) and the GI50 [45] was > 100 µM (inactive) and 85.7 µM (inactive). The GI50 [46] was > 100 µM (inactive), the GI50 [47] was > 100 µM (inactive) and the GI50 [48] was > 100 µM (inactive). For the same compound, the GI50 [49] was > 100 µM (inactive), the GI50 [50] was > 100 µM (inactive) and the GI50 [51] was > 100 µM (inactive). For the same compound, the GI50 [52] was > 100 µM (inactive), the GI50 [53] was 71.3 µM (inactive) and the GI50 [54] was > 100 µM (inactive). The GI50 [55] was > 100 µM (inactive), the GI50 [56] was > 100 µM (inactive) and the GI50 [57] was > 100 µM (inactive). The GI50 [58] was > 100 µM (inactive) and the GI50 [59] was > 100 µM (inactive).
